This is an account of results in ChEMBL document CHEMBL1135450, “Discovery of phenyl alanine derived ketoamides carrying benzoyl residues as novel calpain inhibitors” (Bioorg Med Chem Lett, 2002).

Where a SMILES comes first, the peptide text is derived from it. [ ]: non-standard residue; d: D form. The star is where a group is joined. ξ: configuration not given here. ξF = NC(Cc1ccccc1)C(=O)O; Cbz = O=C(OCc1ccccc1)*

What is called Ki is the equilibrium dissociation constant of an inhibitor or competing ligand from its target. The low end stands for a stronger hold on the target, the high end for a looser hold on the target. One may read the IC50 as the concentration needed to halve the response being measured.

The first experiment deals with T1, Calpain-1 catalytic subunit (Homo sapiens, UniProt P07384).
T1 sequence (P07384 whole entry): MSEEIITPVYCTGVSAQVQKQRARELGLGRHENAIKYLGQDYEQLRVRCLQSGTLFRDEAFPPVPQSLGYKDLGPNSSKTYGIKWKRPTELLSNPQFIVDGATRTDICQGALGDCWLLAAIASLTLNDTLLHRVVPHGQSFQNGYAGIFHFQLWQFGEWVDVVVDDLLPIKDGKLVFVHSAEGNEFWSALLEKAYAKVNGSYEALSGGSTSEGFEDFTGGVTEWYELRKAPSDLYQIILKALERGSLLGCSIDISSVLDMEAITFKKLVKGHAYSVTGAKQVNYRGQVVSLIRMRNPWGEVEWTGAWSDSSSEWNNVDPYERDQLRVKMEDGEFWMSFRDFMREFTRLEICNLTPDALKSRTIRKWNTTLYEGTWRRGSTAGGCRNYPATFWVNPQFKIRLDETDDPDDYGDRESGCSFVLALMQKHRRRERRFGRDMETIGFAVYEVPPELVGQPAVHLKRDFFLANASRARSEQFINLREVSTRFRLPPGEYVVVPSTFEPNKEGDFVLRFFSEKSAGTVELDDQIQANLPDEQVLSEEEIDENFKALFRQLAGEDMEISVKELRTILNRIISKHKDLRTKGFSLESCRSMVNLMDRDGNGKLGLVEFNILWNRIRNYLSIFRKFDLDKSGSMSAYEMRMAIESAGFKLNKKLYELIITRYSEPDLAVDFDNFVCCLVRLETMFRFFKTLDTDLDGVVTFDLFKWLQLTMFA
Description: Inhibition of calpain, using human mu-calpain isolated from erythrocytes and Suc-Leu-Tyr-AMC as the fluorogenic substrate. It counts as cell-free.
`O=CC(Cc1ccccc1)NC(=O)c1ccccc1Cc1ccccc1` (stereo not given) registered a Ki of 370 nM.
Still for that read-out and setting: with `O=CC(Cc1ccccc1)NC(=O)c1ccccc1/C=C/c1ccccc1` (stereo not given) the figure was 140 nM.
The same measure, in the same setting: then `O=CC(Cc1ccccc1)NC(=O)c1ccccc1CCc1ccccc1` (stereo not given), with 280 nM; and `O=CC(Cc1ccccc1)NC(=O)c1ccccc1OCc1ccc2ccccc2c1` (stereo not given), with 50 nM; and `O=CC(Cc1ccccc1)NC(=O)c1ccccc1C#Cc1ccccc1` (stereo not given), with 450 nM.
On the same count and under the same terms, with `NC(=O)C(=O)C(Cc1ccccc1)NC(=O)c1ccccc1/C=C/c1ccc2ccccc2c1` (stereo not given) the figure was 6 nM.
For `O=CC(Cc1ccccc1)NC(=O)c1ccccc1COc1ccccc1` (stereo not given), the Ki was 450 nM.
The same measure, in the same setting: then `O=CC(Cc1ccccc1)NC(=O)c1ccccc1/C=C/c1ccc2ccccc2c1` (stereo not given), with 15 nM.
Still for that read-out and setting: then `O=CC(Cc1ccccc1)NC(=O)c1ccccc1Cc1ccc2ccccc2c1` (stereo not given), with 200 nM; and `O=CC(Cc1ccccc1)NC(=O)c1ccccc1` (stereo not given), with 1080 nM; and `O=CC(Cc1ccccc1)NC(=O)c1ccccc1Oc1ccccc1` (stereo not given), with 50 nM.
Same read-out and setting: with `COc1ccc(/C=C/c2ccccc2C(=O)NC(C=O)Cc2ccccc2)cc1OC` (stereo not given) the figure was 40 nM; with `O=CC(Cc1ccccc1)NC(=O)c1ccccc1-c1ccccc1` (stereo not given), 90 nM.
Consider `O=CC(Cc1ccccc1)NC(=O)c1ccccc1C(=O)c1ccccc1` (stereo not given), for which affinity was put at a Ki of 230 nM.
On the same count and under the same terms, then `NC(=O)C(=O)C(Cc1ccccc1)NC(=O)c1ccccc1-c1ccccc1` (stereo not given), with 40 nM; and `COc1ccc(/C=C/c2ccccc2C(=O)NC(Cc2ccccc2)C(=O)C(N)=O)cc1OC` (stereo not given), with 80 nM.

The target of the next experiment is Procathepsin L (Homo sapiens, UniProt P07711). Description: The compound was evaluated for inhibition of cathepsin L.
Sequence of Procathepsin L (P07711 whole entry): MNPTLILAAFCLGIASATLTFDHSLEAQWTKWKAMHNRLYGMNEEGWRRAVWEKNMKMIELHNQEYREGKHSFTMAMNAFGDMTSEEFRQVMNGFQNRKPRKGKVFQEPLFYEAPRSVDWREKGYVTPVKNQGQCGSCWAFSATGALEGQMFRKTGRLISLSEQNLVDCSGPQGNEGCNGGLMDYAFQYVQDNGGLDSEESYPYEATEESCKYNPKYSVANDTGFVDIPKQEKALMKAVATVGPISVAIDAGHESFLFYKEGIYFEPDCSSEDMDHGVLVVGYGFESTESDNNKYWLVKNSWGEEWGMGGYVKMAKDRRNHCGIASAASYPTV
Turning to `NC(=O)C(=O)C(Cc1ccccc1)NC(=O)c1ccccc1/C=C/c1ccc2ccccc2c1` (stereo not given), the Ki was 6100 nM.

Test system in a further experiment: not listed separately
The experiment is described as follows: Inhibition of calpain-mediated p60 c-Src degradation in human thrombocytes. It counts as functional, cell-based.
In the case of `NC(=O)C(=O)C(Cc1ccccc1)NC(=O)c1ccccc1/C=C/c1ccc2ccccc2c1` (stereo not given), inhibition was half-maximal at 1400 nM (IC50).
Same read-out and setting: with `CC(C)[C@H](NC(=O)OCc1ccccc1)C(=O)NC(C=O)Cc1ccccc1` (stereo partly drawn) (Cbz-Val-[ξF]-aldehyde) the figure was 700 nM.

The target in another experiment is Cathepsin B (Homo sapiens, UniProt P07858). The experiment is described as follows: Inhibition of cathepsin B.
Turning to `NC(=O)C(=O)C(Cc1ccccc1)NC(=O)c1ccccc1/C=C/c1ccc2ccccc2c1` (stereo not given), the Ki amounted to 99 nM.
